Assay results: article PMC5623053 (Frontiers in Molecular Biosciences, 2017)
“Also recorded” adds a separate entry of the source. Bridges are numbered along the chain shown (N, C = ends).

Legend:
Grb2-SH2 WT = biological target: T1, Grb2-SH2 WT (Homo sapiens, UniProt P62993); experiment: SPR binding of G7-18NATE to immobilized GST-Grb2-SH2 WT
T1 construct: Grb7-SH2 (residues 415-532) and Grb2-SH2 (residues 58-160) were incorporated into the pGex2T plasmid; made in house; host or cells: E. coli BL21(DE3)pLysS

[1] = test system: other SH2 domains in the microarray with leucine present at this position; conditions: 79 SH2 domains, 100 μg peptide in PBST; SH2 domains other than Grb7 and SH2D2A with leucine at βD6
SH2 domain of Grb10 = conditions: SPR; ref Gunzburg et al., 2012; cited from earlier work
Grb7-SH2 domain = test system: Grb7-SH2 domain; set-up: method as in 3 sources, one per row (each row's own in cited_ref): ref Ambaye et al., 2011a; Watson et al., 2017 ||| ref Gunzburg et al., 2012 ||| ref Janes et al., 1997; Gunzburg et al., 2012; conditions: ref Janes et al., 1997; Gunzburg et al., 2012; cited from earlier work
Text: Grb7 is a signaling adaptor protein that has been specifically targeted through th ...

SH2D2A = conditions: 79 SH2 domains, 100 μg peptide in PBST, duplicate spots; not quantitative
Grb2 / HER3 = test system: Grb2 / HER3; set-up: method as in Pero et al., 2002; conditions: ref Pero et al., 2002; cited from earlier work
Grb2-SH2 S90R = biological target: T2, Grb2-SH2 S90R (Homo sapiens, UniProt P62993, S90R); experiment: SPR binding of G7-18NATE to immobilized GST-Grb2-SH2 S90R mutant
T2 construct: Grb7-SH2 (residues 415-532) and Grb2-SH2 (residues 58-160) were incorporated into the pGex2T plasmid; made in house; host or cells: E. coli BL21(DE3)pLysS

SH2 domain of Grb14 = conditions: SPR; ref Gunzburg et al., 2012; cited from earlier work
Grb14 = conditions: 79 SH2 domains, 100 μg peptide in PBST, duplicate spots; not quantitative
Description: (§1) The microarray was conducted by the Protein Array and Analysis Core at the MD Anderson Cancer Center (University of Texas, USA) using standard protocols. […] Each SH2 domain was spotted in duplicate.

Grb10 = conditions: 79 SH2 domains, 100 μg peptide in PBST, duplicate spots; not quantitative
Description: as §1

Grb2 = conditions: 79 SH2 domains, 100 μg peptide in PBST, duplicate spots; not quantitative
Description: as §1

[2] = biological target: T3, Grb7-SH2 wild-type, GST fusion (residues 415-532) (UniProt Q14451 415-532); experiment: SPR; Biacore T100, CM5 chip; GST-SH2 fusion captured by amine-coupled anti-GST antibody, GST alone on the reference cell; G7-18NATE injected 60 s at 30 μL/min in 150 mM NaPO4, 150 mM NaCl, 1 mM DTT, pH 7.4; equilibrium responses fitted by a single-site binding model; conditions: both partners purified
T3 construct: also called Grb7-SH2 WT; WT Grb7-SH2
T3 sequence (Q14451 415-532): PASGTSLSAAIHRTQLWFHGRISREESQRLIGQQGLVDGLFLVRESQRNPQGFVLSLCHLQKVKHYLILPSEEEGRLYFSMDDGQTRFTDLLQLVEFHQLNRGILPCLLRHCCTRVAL

[3] = biological target: T4, Grb7-SH2 R462S, GST fusion (residues 415-532) (UniProt Q14451 415-532, R462S); experiment: as above; conditions: both partners purified
T4 construct: Made by site-directed mutagenesis of the wild-type construct; primers in Supplementary Material; also called R462S Grb7-SH2; R462S mutant
T4 sequence (Q14451 415-532 R462S): as the sequence (Q14451 415-532) above, with R48S counted along it

[4] = biological target: T5, Grb2-SH2 wild-type, GST fusion (residues 58-160) (UniProt P62993 58-160); experiment: as above; conditions: both partners purified
T5 construct: Grb2, SH2 domain, residues 58-160, in pGex2T; also called Grb2-SH2 WT; WT Grb2-SH2

[5] = biological target: T4, Grb7-SH2 R462S, GST fusion (residues …); experiment: as above; conditions: both partners purified; remark: listed apart in the source
[6] = SPR, Biacore T100, single-site binding model, errors are standard error of the fits
[7] = in words, injection of G7-18NATE over the chip surface

C[C@@H](O)[C@@H]1NC(=O)[C@H](CC(N)=O)NC(=O)[C@H](CC(=O)O)NC(=O)[C@H](Cc2ccc(O)cc2)NC(=O)CNC(=O)[C@H](CCC(=O)O)NC(=O)[C@H](Cc2ccccc2)NC(=O)[C@H](Cc2c[nH]c3ccccc23)NC(=O)CSC[C@@H](C(N)=O)NC(=O)[C@@H]2CCCN2C(=O)[C@H](Cc2ccccc2)NC1=O [G7-18NATE]
Rmax (Grb2-SH2 WT; [6]): 14.2 ± 0.9 RU | SPR binding response (Grb2-SH2 WT; [7]): only a low binding response | microarray binding [1]: no ability to be bound | binding to Grb10 SH2 domain (SH2 domain of Grb10): minimal binding | specificity for Grb7-SH2 over Grb2, Grb10 and Grb14 SH2 domains (Grb7-SH2 domain): specific for the Grb7-SH2 domain over the closely related SH2 domains of Grb2, Grb10, and Grb14 | microarray fluorescence / binding (SH2D2A): detectable binding | effect on Grb2/HER3 interaction (Grb2 / HER3): no effect | Rmax (Grb2-SH2 S90R; [6]): 41.0 ± 3 RU | SPR binding response (Grb2-SH2 S90R; [7]): low responses, though slightly higher than seen for Grb2-SH2 WT; also recorded: minimal binding | binding to Grb14 SH2 domain (SH2 domain of Grb14): minimal binding

(cyclo-(CH2CO-WFEGYDNTFPC-RRMKWKKK(Biotin))-amide) (sidechain bridge or staple) [G7-18NATE-PB]
microarray fluorescence (Grb14): no observation of fluorescence | microarray fluorescence (Grb10): no observation of fluorescence | microarray fluorescence (Grb2): no observation of fluorescence | microarray fluorescence / binding (SH2D2A): Fluorescence was observed, although at much lower intensity

B1: G7-18NATE (cyclo-(CH2CO-WFEGYDNTFPC)-amide) (peptide)
peptide: {CH2CO}-WFEGYDNTFPC-NH2
modifications: thioether N-11
notes: cyclic peptide developed via phage display against the Grb7-SH2 domain; Purity >95% by LC-MS; source: synthetic peptide (standard Fmoc-chemistry), bought: Purar Chemicals (Australia)
Kd [2]: 2.43 µM | Kd [3]: 7.98 µM | Kd [4]: > 125 µM | Kd [5]: 7.97 µM
